Test results published in US12030896B2, “PIKfyve inhibitors” (Mayo Foundation for Medical Education and Research, priority 2018, dated 2024).
Like-named read-outs stand apart in the source and are kept apart here.

Test: Pharmacokinetic study of Example 1 in mouse (IV, IP, PO)
Assay type: in vivo, Male C57BL/6 Mouse
Settings: male, C57BL/6, mouse, plasma; for AUC(0-inf): read-out: AUC0-inf; for Cmax: read-out: Cmax; for MRT inf: read-out: MRT0-inf; for MRT last: read-out: MRT0-last; for Tmax: read-out: Tmax; for concentration at 0.25 h: 0.250 h; for concentration at 0.5 h: 0.500 h; for C0: read-out: C0; for Vd: read-out: Vdss; for bioavailability: calculated using AUC0-inf or AUC0-last with nominal dose
Protocol: Species: Male C57BL/6 Mouse, fasted.
PK/PD testing of the compound was performed in mice, after IP, IV, or oral administration.

[1] = ip, 30 mg/kg, IP 30 mg/kg, individual mice M4-M6
[2] = ip, 30 mg/kg, IP 30 mg/kg, mean
[3] = iv, 5 mg/kg, IV 5 mg/kg, individual mice M1-M3
[4] = po, 30 mg/kg, PO 30 mg/kg, individual mice M7-M9
[5] = po, 30 mg/kg, PO 30 mg/kg, mean

Cc1ccc(Nc2nc(N/N=C/c3c[nH]c4ccccc34)nc(N3CCOCC3)n2)cc1 [Example 1, (E)-4-(2-((1H-indol-3-yl)methylene)hydrazinyl)-6-morpholino-N-(p-tolyl)-1,3,5-triazin-2-amine]
concentration at 6 h [1]: 97.8 ng/mL | concentration at 6 h [2]: 105 ng/mL | concentration at 24 h [1]: 35 ng/mL | concentration at 24 h [2]: 36.6 ng/mL | AUC(0-t) [1]: 2520 ng·h/mL | AUC(0-inf) [1]: 3060 ng·h/mL | Cmax [1]: 443 ng/mL | MRT inf [1]: 13 h | MRT last [1]: 7.2 h | half-life (ip, 30 mg/kg, IP 30 mg/kg, individual mice M4-M6, read-out: T1/2 (converted)): 10.9 h | Tmax [1]: 1 h | AUC(0-t) [2]: 2850 ng·h/mL | AUC(0-inf) [2]: 3390 ng·h/mL | Cmax [2]: 534 ng/mL | MRT inf [2]: 12 h | MRT last [2]: 6.91 h | half-life (ip, 30 mg/kg, IP 30 mg/kg, mean, read-out: T1/2 (converted)): 10.1 h | Tmax [2]: 1.33 h | half-life (ip, 30 mg/kg, IP, single 30 mg/kg dose, read-out: half life (converted)): 10.1 h | concentration at 5 min [3]: 1300 ng/mL | concentration at 5 min (iv, 5 mg/kg, IV 5 mg/kg, mean): 1630 ng/mL | concentration at 0.25 h [3]: 1140 ng/mL | concentration at 0.25 h (iv, 5 mg/kg, IV 5 mg/kg, mean): 1310 ng/mL | concentration at 0.5 h [3]: 832 ng/mL | concentration at 0.5 h (iv, 5 mg/kg, IV 5 mg/kg, mean): 1010 ng/mL | concentration at 1 h [3]: 529 ng/mL | concentration at 1 h (iv, 5 mg/kg, IV 5 mg/kg, mean): 599 ng/mL | concentration at 2 h [3]: 176 ng/mL | concentration at 2 h (iv, 5 mg/kg, IV 5 mg/kg, mean): 183 ng/mL | concentration at 4 h [3]: 17.4 ng/mL | concentration at 4 h (iv, 5 mg/kg, IV 5 mg/kg, mean): 16.8 ng/mL | concentration at 6 h [3]: 5.13 ng/mL | concentration at 6 h (iv, 5 mg/kg, IV 5 mg/kg, mean): 4.2 ng/mL | AUC(0-t) [3]: 1370 ng·h/mL | clearance [3]: 60.5 mL/min/kg | AUC(0-inf) [3]: 1380 ng·h/mL | C0 [3]: 1390 ng/mL | MRT inf [3]: 0.959 h | MRT last [3]: 0.936 h | half-life (iv, 5 mg/kg, IV 5 mg/kg, individual mice M1-M3, read-out: T1/2 (converted)): 0.71 h | Vd [3]: 3.48 L/kg | AUC(0-t) (iv, 5 mg/kg, IV 5 mg/kg, mean): 1580 ng·h/mL | clearance (iv, 5 mg/kg, IV 5 mg/kg, mean): 53.4 mL/min/kg | AUC(0-inf) (iv, 5 mg/kg, IV 5 mg/kg, mean): 1580 ng·h/mL | C0 (iv, 5 mg/kg, IV 5 mg/kg, mean): 1820 ng/mL | MRT inf (iv, 5 mg/kg, IV 5 mg/kg, mean): 0.899 h | MRT last (iv, 5 mg/kg, IV 5 mg/kg, mean): 0.882 h | half-life (iv, 5 mg/kg, IV 5 mg/kg, mean, read-out: T1/2 (converted)): 0.667 h | Vd (iv, 5 mg/kg, IV 5 mg/kg, mean): 2.9 L/kg | concentration at 0.25 h [4]: 52.7 ng/mL | concentration at 0.25 h [5]: 59.1 ng/mL | concentration at 0.5 h [4]: 167 ng/mL | concentration at 0.5 h [5]: 122 ng/mL | concentration at 1 h [5]: 92 ng/mL | concentration at 2 h [5]: 30.5 ng/mL | concentration at 4 h [5]: 7.49 ng/mL | concentration at 6 h [4]: 11 ng/mL | concentration at 6 h [5]: 10 ng/mL | AUC(0-inf) [4]: 312 ng·h/mL | Cmax [4]: 167 ng/mL | MRT inf [4]: 2.1 h | MRT last [4]: 1.69 h | half-life (po, 30 mg/kg, PO 30 mg/kg, individual mice M7-M9, read-out: T1/2 (converted)): 1.31 h | Tmax [4]: 0.5 h | AUC(0-t) [5]: 188 ng·h/mL | AUC(0-inf) [5]: 211 ng·h/mL | Cmax [5]: 122 ng/mL | MRT inf [5]: 2.4 h | MRT last [5]: 1.61 h | half-life (po, 30 mg/kg, PO 30 mg/kg, mean, read-out: T1/2 (converted)): 1.54 h | Tmax [5]: 0.5 h | bioavailability (IP 30 mg/kg): 35.7% | bioavailability (PO 30 mg/kg): 2.22%
